“Also recorded” adds a separate entry of the source.
Experiments:
[1] = test system: 5/6 nephrectomized (Nx) rat model; assay: 5/6 nephrectomized (Nx) rat model, Compound XIV by gastric gavage once daily; type: in vivo, male Wistar rats; conditions: Nx rats, p<0.01
Text: Male 6 week-old Wistar rats were subjected to 5/6 nephrectomy or sham operations. Under fluothane anesthesia, renal ablation was achieved by removing two-thirds of the left kidney followed by a right unilateral nephrectomy 7 days later. Sham rats underwent exposition of the kidneys and removal of the perirenal fat. Animals that underwent the sham operation were given vehicle (saline) and were used as controls. Nx animals were divided in groups receiving the vehicle or Compound XIV. Saline or Compound XIV was given by gastric gavage once daily up to the sacrifice. Serum glucose was measured every three weeks in order to assess the effect of the compound on serum glucose concentration in a renal disease model. Rats were sacrificed at day 126.

[2] = test system: diabetic mouse (db/db) model; assay: Diabetic db/db uninephrectomized mouse model, oral Compound I; type: in vivo, male Lepr db (db/db) mice; conditions: 100 mg/kg per day oral; day 69 to day 128; FIG. 7
Experimental: Male Lepr db (db/db) and age- and sex-matched control mice with the same genetic background (C57BL/6) were used. Animals were randomized using blood sugar measurement (5-hours starved) at week 6 and uninephrectomy (removal of right kidney) was performed. Sham animals (C57BL/6) underwent exposition of the right kidney. Animals that underwent the sham operation were given vehicle (saline) and were used as negative controls. C57BL/6 mice that were uninephrectomized were given vehicle and were used as positive controls. Db/db mice were treated with oral administration of compound I at 100 mg/kg per day for 131 days. Serum glucose was measured every two to four weeks. Oral glucose tolerance test was performed on 16-hours starved mice at day 112. […] Fluorescence was determined and GFR calculated based on a two-compartment model using nonlinear regression curve-fitting software.

[3] = test system: streptozotocin-induced diabetes; assay: Streptozotocin-induced diabetes model in rats, oral Compound I; type: in vivo, male Sprague Dawley rats
Experimental: Diabetes was induced by a single intraperitoneal administration of streptozotocin (65 mg/kg of body weight) in fasted male Sprague Dawley rats, weighing approximately 200-250 g. After 48 hours, rats with plasma glucose more than 10 mmole/L were enrolled and treated with vehicle or compounds. Streptozotocin is well known to induce […] toxicity. […] Ketonuria is a medical condition in which ketone bodies are present in the urine. It is seen in conditions in which the body produces excess ketones as an alternative source of energy. It is seen during starvation or more commonly in diabetes. […] Proteinuria is a medical condition in which an excess of protein is present in the urine. Proteinuria may be a sign of renal kidney damage. Since serum proteins are readily reabsorbed from urine, the presence of excess protein indicates either an insufficiency of absorption or impaired filtration. Diabetics may suffer from damaged nephrons and develop proteinuria. The most common cause of proteinuria is diabetes. […] Despite the available therapies of glycemic and blood pressure control, many patients continue to show progressive renal damage. Therefore, it is extremely important to identify novel interventions to halt the progression of diabetic nephropathy.

SMILES | urinary proteins concentration ([1]; 10 mg/kg, day 84 and 126, FIG. 6) | serum glucose concentration ([1]; 50 mg/kg, day 42 to day 126, FIG. 5) | serum glucose concentration (percent increase vs C57BL/6 sham) [2] | level of increase in blood glucose (delta) ([3]; 100 mg/kg oral, day 2 to day 62 post-streptozotocin, p<0.05, FIG. 1) | urinary protein (proteinuria) ([3]; 100 mg/kg oral, vs STZ+ (diabetic) animals, FIG. 3) | ketone bodies in urine ([3]; streptozotocin-diabetic rats, treated vs untreated, p<0.05, FIG. 2)
CCCCCCCCC(Oc1ccc(C(=O)CCCCCCC)cc1)C(=O)[O-].[Na+] (racemic) [Compound XIV, Sodium (RS)-2-[4-octanoylphenoxy]decanoate] | significant (p<0.01) decrease | significant (p<0.01) decrease |  |  |  | 
CCCCCc1cccc(CC(=O)[O-])c1.[Na+] [Compound I] |  |  | significant decrease | decrease significantly | completely abbrogated the presence of urinary protein | significantly reduce the appearance of ketone bodies in the urine; also recorded: significantly (p<0.05) reduced
